Among the data in US20100099198A1 (priority 2008, published 2010) are dwell time values, retold here.

The experiment deals with (WT)7 αHL protein pore (Staphylococcus aureus, UniProt P09616). Conditions: pH 7.5.
Sequence of (WT)7 αHL protein pore (P09616 27-319 limits assumed): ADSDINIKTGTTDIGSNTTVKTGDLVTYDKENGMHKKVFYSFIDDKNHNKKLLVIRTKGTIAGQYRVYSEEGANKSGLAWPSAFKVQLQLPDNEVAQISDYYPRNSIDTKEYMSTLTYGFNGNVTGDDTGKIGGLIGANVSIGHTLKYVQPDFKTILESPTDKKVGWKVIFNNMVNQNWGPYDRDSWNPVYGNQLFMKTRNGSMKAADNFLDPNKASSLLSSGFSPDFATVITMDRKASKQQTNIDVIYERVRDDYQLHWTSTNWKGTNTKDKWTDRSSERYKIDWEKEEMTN

Regarding Y-Y-Y-Y-Y-Y [Y6], the dwell time was determined as 1.2 ms.
